The values that follow come from patent US20260216294A1, “BETA 2-ADRENERGIC RECEPTOR AGONISTS FOR TREATMENT OR PREVENTION OF MUSCLE WASTING” (ATROGI AB, priority 2023, published 2026).

For assay [1], the system named is L6-myotubes. Kind of assay: Glucose uptake in differentiated L6-myotubes (Biological Example 2). It counts as cell-based. The note with it: glucose uptake in differentiated L6-myotubes; compound at 10 μM, activity relative to isoproterenol at 10 μM; read-out: Biological example 2 (GU). The essentials:
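Uptake was quantified as radioactivity in 0.2 M NaOH lysates after a 10 min pulse of 50 nM ^3H-2-deoxyglucose. The pulse followed two agonist exposures at 1×10^−5 M final (isoprenaline or test compound): 1 h 40 min, then 20 min in glucose-free medium after washing. L6 myotubes had been starved overnight in medium with 0.5% fatty-acid-free BSA.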

Assay [2] has as its system L6-myotubes. Put plainly: Measurement of intracellular cAMP levels in differentiated L6-myotubes (Biological Example 3). It counts as cell-based. The note with it: 0.25 h, intracellular cAMP in differentiated L6-myotubes; compound at 10 μM, activity relative to isoproterenol at 10 μM. The method in brief: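 Intracellular cAMP quantified by AlphaScreen after ethanol extraction and lysis of L6 myotubes. Cells were serum-starved overnight, then exposed for 15 min to compound (final 1×10^−5 M) or isoprenaline in IBMX-containing (1 mM) HBSS buffer, pH 7.4.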

Take `CO[C@H]1CCC[C@@H](C(C)(C)NC[C@H](O)c2cccc(F)c2)C1` [Compound 256, (R)-2-{1-[(1R,3S)-3-methoxycyclohexyl]-1-methylethylamino}-1-(m-fluorophenyl)-1-ethanol]: the Emax at 10 µM is above 75% with L6-myotubes [1] and 25 to 50% in the assay on L6-myotubes [2].
The matching figures for `CO[C@@H]1CCC[C@H](C(C)(C)NC[C@H](O)c2cncc(F)c2)C1` [Compound 257, (R)-2-{1-[(1S,3R)-3-methoxycyclohexyl]-1-methylethylamino}-1-(5-fluoro-3-pyridyl)-1-ethanol]: 50 to 75% and below 25%.
For `CO[C@H]1CC[C@@H](CCCNC[C@H](O)c2cccc(F)c2)CC1` [Compound 258, (R)-1-(m-fluorophenyl)-2-{3-[(1s,4R)-4-methoxycyclohexyl]propylamino}-1-ethanol], the values for the Emax at 10 µM in the assay on L6-myotubes [1] and in the assay with L6-myotubes [2] were above 75% and 50 to 75%, respectively.
Consider `CO[C@H]1CC[C@H](CCCNC[C@H](O)c2cccc(F)c2)CC1` [Compound 259, (R)-1-(m-fluorophenyl)-2-{3-[(1r,4S)-4-methoxycyclohexyl]propylamino}-1-ethanol], for which the Emax at 10 µM with L6-myotubes [1] was 25 to 50%; in the assay on L6-myotubes [2] it was below 25%.
The like results for `CO[C@H]1CC[C@@H](CCCNC[C@H](O)c2cncc(F)c2)CC1` [Compound 260, (R)-1-(5-fluoro-3-pyridyl)-2-{3-[(1s,4R)-4-methoxycyclohexyl]propylamino}-1-ethanol] were, in that order, above 75% and below 25%.
Take `CO[C@H]1CC[C@H](CCCNC[C@H](O)c2cncc(F)c2)CC1` [Compound 261, (R)-1-(5-fluoro-3-pyridyl)-2-{3-[(1r,4S)-4-methoxycyclohexyl]propylamino}-1-ethanol]: the Emax at 10 µM with L6-myotubes [1] and with L6-myotubes [2] was below 25% each time.
As for `O[C@@H](CNC[C@H]1CC[C@@H](OCc2ccccc2)CC1)c1cccc(F)c1` [Compound 262, (R)-1-(m-fluorophenyl)-2-({[(1s,4S)-4-(benzyloxy)cyclohexyl]methyl}amino)-1-ethanol], the Emax at 10 µM was 25 to 50% in the assay on L6-myotubes [1] and below 25% in the assay on L6-myotubes [2].
Regarding `O[C@@H](CNC[C@H]1CC[C@@H](OCc2ccccc2)CC1)c1cncc(F)c1` [Compound 263, (R)-1-(5-fluoro-3-pyridyl)-2-({[(1s,4S)-4-(benzyloxy)cyclohexyl]methyl}amino)-1-ethanol], the Emax at 10 µM in the assay on L6-myotubes [1] was above 75%; with L6-myotubes [2], below 25%.
The like results for `CO[C@H]1CC[C@@H](CCC(C)(C)NC[C@H](O)c2cccc(F)c2)CC1` [Compound 264, (R)-2-{1,1-dimethyl-3-[(1s,4R)-4-methoxycyclohexyl]propylamino}-1-(m-fluorophenyl)-1-ethanol] were, in that order, above 75% and 25 to 50%.
As to `CO[C@H]1CC[C@H](CCC(C)(C)NC[C@H](O)c2cccc(F)c2)CC1` [Compound 265, (R)-2-{1,1-dimethyl-3-[(1r,4S)-4-methoxycyclohexyl]propylamino}-1-(m-fluorophenyl)-1-ethanol], the Emax at 10 µM in the assay on L6-myotubes [1] was 50 to 75%; in the assay on L6-myotubes [2], below 25%.
`CO[C@H]1CC[C@@H](CCC(C)(C)NC[C@H](O)c2cncc(F)c2)CC1` [Compound 266]: the Emax at 10 µM in the assay with L6-myotubes [1] is above 75%; in the assay on L6-myotubes [2], below 25%.
Regarding `CO[C@H]1CC[C@H](CCC(C)(C)NC[C@H](O)c2cncc(F)c2)CC1` [Compound 267, (R)-2-{1,1-dimethyl-3-[(1r,4S)-4-methoxycyclohexyl]propylamino}-1-(5-fluoro-3-pyridyl)-1-ethanol], the Emax at 10 µM with L6-myotubes [1] is 25 to 50%; in the assay with L6-myotubes [2] it was below 25%.
On to `O[C@@H](CNC[C@H]1CC[C@@H](O)CC1)c1cccc(F)c1` [Compound 268, (R)-1-(m-fluorophenyl)-2-({[(1s,4S)-4-hydroxycyclohexyl]methyl}amino)-1-ethanol], for which the Emax at 10 µM in the assay with L6-myotubes [1] is 25 to 50%; in the assay with L6-myotubes [2], below 25%.
As for `O[C@@H](CNC[C@H]1CC[C@@H](O)CC1)c1cncc(F)c1` [Compound 269, (R)-1-(5-fluoro-3-pyridyl)-2-({[(1s,4S)-4-hydroxycyclohexyl]methyl}amino)-1-ethanol], the Emax at 10 µM was 25 to 50% with L6-myotubes [1] and below 25% with L6-myotubes [2].
On to `CO[C@H]1CCC[C@@H](C(C)(C)NC[C@H](O)c2cncc(F)c2)C1` [Compound 270, (R)-2-{1-[(1R,3S)-3-methoxycyclohexyl]-1-methylethylamino}-1-(5-fluoro-3-pyridyl)-1-ethanol], for which the Emax at 10 µM is above 75% with L6-myotubes [1] and 50 to 75% in the assay with L6-myotubes [2].
For `O[C@@H](CNC[C@H]1CC[C@H](OCc2ccccc2)CC1)c1cccc(F)c1` [Compound 271, (R)-1-(m-fluorophenyl)-2-({[(1r,4R)-4-(benzyloxy)cyclohexyl]methyl}amino)-1-ethanol], the Emax at 10 µM is 25 to 50% in the assay on L6-myotubes [1] and below 25% in the assay with L6-myotubes [2].
Consider `O[C@@H](CNC[C@H]1CC[C@H](O)CC1)c1cccc(F)c1` [Compound 272, (R)-1-(m-fluorophenyl)-2-({[(1r,4R)-4-hydroxycyclohexyl]methyl}amino)-1-ethanol], for which the Emax at 10 µM in the assay with L6-myotubes [1] was 25 to 50%; in the assay with L6-myotubes [2], below 25%.
Consider `O[C@@H](CNC[C@H]1CC[C@H](OCc2ccccc2)CC1)c1cncc(F)c1` [Compound 273, (R)-1-(5-fluoro-3-pyridyl)-2-({[(1r,4R)-4-(benzyloxy)cyclohexyl]methyl}amino)-1-ethanol], for which the Emax at 10 µM with L6-myotubes [1] is 25 to 50%; in the assay on L6-myotubes [2], below 25%.
Regarding `O[C@@H](CNC[C@H]1CC[C@H](O)CC1)c1cncc(F)c1` [Compound 274, (R)-1-(5-fluoro-3-pyridyl)-2-({[(1r,4R)-4-hydroxycyclohexyl]methyl}amino)-1-ethanol], the Emax at 10 µM in the assay on L6-myotubes [1] and with L6-myotubes [2] was below 25% throughout.
In the case of `O[C@@H](CNCCC[C@H]1CC[C@@H](OCc2ccccc2)CC1)c1cncc(F)c1` [Compound 275, (R)-1-(5-fluoro-3-pyridyl)-2-{3-[(1s,4R)-4-(benzyloxy)cyclohexyl]propylamino}-1-ethanol], the results for the Emax at 10 µM with L6-myotubes [1] and with L6-myotubes [2] were 50 to 75% and below 25%, respectively.
The like results for `O[C@@H](CNCCC[C@H]1CC[C@H](OCc2ccccc2)CC1)c1cncc(F)c1` [Compound 276, (R)-1-(5-fluoro-3-pyridyl)-2-{3-[(1r,4S)-4-(benzyloxy)cyclohexyl]propylamino}-1-ethanol] were, in that order, 25 to 50% and below 25%.
In the case of `O[C@@H](CNCCC[C@H]1CC[C@@H](OCc2ccccc2)CC1)c1cccc(F)c1` [Compound 277, (R)-1-(m-fluorophenyl)-2-{3-[(1s,4R)-4-(benzyloxy)cyclohexyl]propylamino}-1-ethanol], the Emax at 10 µM in the assay with L6-myotubes [1] was 25 to 50%; in the assay with L6-myotubes [2] it was below 25%.
On to `O[C@@H](CNCCC[C@H]1CC[C@H](OCc2ccccc2)CC1)c1cccc(F)c1` [Compound 278, (R)-1-(m-fluorophenyl)-2-{3-[(1r,4S)-4-(benzyloxy)cyclohexyl]propylamino}-1-ethanol], for which the Emax at 10 µM in the assay with L6-myotubes [1] was 25 to 50%; in the assay on L6-myotubes [2] it was below 25%.
Regarding `CC(C)(NC[C@H](O)c1cccc(F)c1)[C@H]1CC[C@H](OCc2ccccc2)CC1` [Compound 279, (R)-1-(m-fluorophenyl)-2-{1-methyl-1-[(1r,4R)-4-(benzyloxy)cyclohexyl]ethylamino}-1-ethanol], the values for the Emax at 10 µM in the assay with L6-myotubes [1] and in the assay with L6-myotubes [2] were 50 to 75% and below 25%, respectively.
